Laboratory results from paper PMC6251916, “CKD-506, a novel HDAC6-selective inhibitor, improves renal outcomes and survival in a mouse model of systemic lupus erythematosus” (Scientific Reports, 2018).
pIC50: −log10 of the molar value.

Columns and labels:
HDAC7 = target: T1, HDAC7 (Homo sapiens, UniProt Q8WUI4); assay: HDAC panel assay (enzyme activity); format: biochemical
T1 construct: purchased Reaction biology Corp. (Malvern, PA, USA)
T1 sequence (Q8WUI4 1-952): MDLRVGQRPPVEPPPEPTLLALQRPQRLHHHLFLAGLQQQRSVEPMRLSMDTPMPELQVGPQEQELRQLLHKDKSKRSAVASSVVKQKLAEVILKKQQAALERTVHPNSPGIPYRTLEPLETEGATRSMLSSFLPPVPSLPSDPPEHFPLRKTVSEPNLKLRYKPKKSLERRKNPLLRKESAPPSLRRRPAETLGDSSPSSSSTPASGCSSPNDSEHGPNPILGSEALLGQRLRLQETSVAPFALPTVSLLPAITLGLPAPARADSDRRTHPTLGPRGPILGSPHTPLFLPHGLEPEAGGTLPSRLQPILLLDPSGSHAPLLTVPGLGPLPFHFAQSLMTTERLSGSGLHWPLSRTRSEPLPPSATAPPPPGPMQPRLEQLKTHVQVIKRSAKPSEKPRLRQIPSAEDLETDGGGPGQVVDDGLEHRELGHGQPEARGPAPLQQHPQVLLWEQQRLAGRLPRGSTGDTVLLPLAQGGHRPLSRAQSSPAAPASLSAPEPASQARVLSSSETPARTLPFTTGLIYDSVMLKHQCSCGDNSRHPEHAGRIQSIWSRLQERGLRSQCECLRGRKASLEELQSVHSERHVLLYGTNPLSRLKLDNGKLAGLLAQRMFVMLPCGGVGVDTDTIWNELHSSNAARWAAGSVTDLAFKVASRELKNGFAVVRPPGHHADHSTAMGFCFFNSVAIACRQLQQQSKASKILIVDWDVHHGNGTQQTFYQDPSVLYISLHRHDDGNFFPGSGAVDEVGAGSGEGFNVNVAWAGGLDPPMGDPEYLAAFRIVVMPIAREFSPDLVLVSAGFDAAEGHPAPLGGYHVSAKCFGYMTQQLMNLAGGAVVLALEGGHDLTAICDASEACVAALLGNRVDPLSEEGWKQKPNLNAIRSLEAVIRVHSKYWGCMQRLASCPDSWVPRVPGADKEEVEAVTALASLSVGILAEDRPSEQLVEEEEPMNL
Description: (§1) HDAC panel assay was performed by Reaction biology Corp. (Malvern, PA, USA) according to their validated protocol. To evaluate the potency and selectivity of CKD-506, HDAC panel assay was carried out by Reaction biology Corp. Briefly, the deacetylation reaction was performed in 50 mM Tris-HCl pH 8.0, 137 mM NaCl, 2.7 mM KCl, 1 mM MgCl2, and 1 mg/ml bovine serum albumin (BSA) with RHK-K(Ac)-AMC as substrate. After the reaction, a fluorescence signal (Ex. 360 nm/Em. 460 nm) developed (~30 min.) by addition of an equal volume of 2 mM nicotinamide, 16 mg/mL trypsin in 50 mM Tris-HCl pH 8.0, 137 mM NaCl, 2.7 mM KCl, and 1 mM MgCl2.

other HDAC isoforms = assay: HDAC panel assay (enzyme activity); format: biochemical
Description: as §1

HDAC1 = target: T2, HDAC1 (Homo sapiens, UniProt Q13547); assay: HDAC panel assay (enzyme activity); format: biochemical
T2 construct: purchased Reaction biology Corp. (Malvern, PA, USA)
Description: as §1

HDAC8 = target: T3, HDAC8 (Homo sapiens, UniProt Q9BY41); assay: HDAC panel assay (enzyme activity); format: biochemical
T3 construct: purchased Reaction biology Corp. (Malvern, PA, USA)
T3 sequence (Q9BY41 1-377): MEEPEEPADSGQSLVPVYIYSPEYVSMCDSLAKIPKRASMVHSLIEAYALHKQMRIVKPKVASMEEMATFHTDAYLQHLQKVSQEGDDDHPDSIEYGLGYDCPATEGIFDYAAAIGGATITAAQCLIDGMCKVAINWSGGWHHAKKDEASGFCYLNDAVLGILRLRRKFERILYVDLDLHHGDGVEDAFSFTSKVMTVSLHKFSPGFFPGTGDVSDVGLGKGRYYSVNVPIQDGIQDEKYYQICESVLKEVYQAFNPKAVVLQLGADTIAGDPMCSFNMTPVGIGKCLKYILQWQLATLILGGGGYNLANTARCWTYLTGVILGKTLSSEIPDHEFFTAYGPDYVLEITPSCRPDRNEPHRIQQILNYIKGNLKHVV
Description: as §1

HDAC2 = target: T4, HDAC2 (Homo sapiens, UniProt Q92769); assay: HDAC panel assay (enzyme activity); format: biochemical
T4 construct: purchased Reaction biology Corp. (Malvern, PA, USA)
Description: as §1

[1] = Pharmacokinetic analysis after single intraperitoneal injection; format: in vivo, NZB/W F1 mice; conditions: for AUCinf / AUC0-24hr / Cmax / T1/2 / Tmax: plasma, mean ± SD; for AUCinf: extrapolated
Description: Four 23-week old female NZB/W F1 mice were purchased from Jackson Laboratory and housed in CKD Research Institute animal facility. This study was reviewed and approved by the Institutional Animal Care and Use Committee of CKD Research Institute. All procedures were in compliance with Animal Welfare Act Regulations and the Guide for the Care and Use of Laboratory Animals. The indicated amount of CKD-506 was injected intraperitoneally into NZB/W F1 mice. Blood samples were collected from retro-orbital plexus using a heparinized capillary tube under diethyl-ether anesthesia at pre-dose (0) and 0.25, 1, 2, 4, 8 and 24 hours post-dose at day of PK sampling. After centrifugation at 13,000 rpm for 4 min and 4 °C, ten microliters of the separated plasma was dispensed into microtube and 120 μl of organic solvent (90% acetonitrile (in MeOH, v/v)) was immediately added for deproteinization/extraction. The pre-treated samples had been kept at −70 °C until analysis. Ten microliters of internal standard (verapamil 500 ng/ml in acetonitrile) was added into the pre-treated plasma samples and vortexed for 1 min and then, centrifuged at 13,000 rpm for 4 min and 4 °C. Eighty microliters of the supernatant of the sample were transferred into a 96 well-autosampler plate and 40 μl of HPLC water was then added in each well. The concentration of CKD-506 in samples were analyzed using API 4000 QTRAP (AB SCIEX) (Framingham, MA).

NZB/W F1 female mice = assay: Murine SLE model: serum immunoglobulin isotyping; format: in vivo, mouse; conditions: group CKD50
Description: Survival had been monitored until 42 weeks of age.
Serum immunoglobulin concentrations were determined with mouse IgG1, IgG2A, IgG2B, IgG3, and IgM Isotyping kits and a mouse Mag Isotyping assay base kit (R&D Systems, Minneapolis, MN). Thirty-fold diluted sera were used for analysis of IgM and IgG2B levels, 6000-fold diluted sera were used for analysis of IgG1 and IgG2A levels and 48,000-fold diluted sera were used for analysis of IgG3 level.

T4 sequence (Q92769 whole entry): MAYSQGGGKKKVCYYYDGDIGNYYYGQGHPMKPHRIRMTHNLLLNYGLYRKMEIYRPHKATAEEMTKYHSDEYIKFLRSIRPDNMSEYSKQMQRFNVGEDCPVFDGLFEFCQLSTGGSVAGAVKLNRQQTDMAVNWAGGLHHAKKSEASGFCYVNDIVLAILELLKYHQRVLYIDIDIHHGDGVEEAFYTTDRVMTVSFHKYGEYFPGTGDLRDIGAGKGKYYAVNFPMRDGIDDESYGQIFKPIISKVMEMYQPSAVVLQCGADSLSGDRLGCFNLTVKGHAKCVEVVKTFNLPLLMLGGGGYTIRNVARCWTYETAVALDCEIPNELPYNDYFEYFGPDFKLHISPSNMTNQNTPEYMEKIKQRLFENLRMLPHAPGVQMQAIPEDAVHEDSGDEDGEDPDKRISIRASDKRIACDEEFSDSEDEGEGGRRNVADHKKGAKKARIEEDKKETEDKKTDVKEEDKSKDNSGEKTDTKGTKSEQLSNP
T2 sequence (Q13547 whole entry): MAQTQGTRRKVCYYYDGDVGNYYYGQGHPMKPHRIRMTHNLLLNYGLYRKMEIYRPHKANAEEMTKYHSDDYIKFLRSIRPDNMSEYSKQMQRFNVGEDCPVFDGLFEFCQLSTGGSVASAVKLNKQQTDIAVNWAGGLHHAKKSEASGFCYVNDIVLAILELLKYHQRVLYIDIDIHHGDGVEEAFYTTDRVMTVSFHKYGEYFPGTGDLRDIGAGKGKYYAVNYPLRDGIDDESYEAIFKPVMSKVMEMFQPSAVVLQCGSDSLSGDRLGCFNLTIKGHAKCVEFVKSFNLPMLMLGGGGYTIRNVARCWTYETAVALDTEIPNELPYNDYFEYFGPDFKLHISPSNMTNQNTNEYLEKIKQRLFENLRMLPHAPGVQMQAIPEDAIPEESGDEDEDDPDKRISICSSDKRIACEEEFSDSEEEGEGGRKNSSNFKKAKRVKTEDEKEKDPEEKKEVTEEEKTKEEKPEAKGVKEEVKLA

CKD-506
pIC50 (HDAC7): 5.30 to 5.70
inhibition of enzyme activity of other HDAC isoforms (other HDAC isoforms): does not inhibit
pIC50 (HDAC1): 5.30 to 5.70
pIC50 (HDAC8): 5.30 to 5.70
pIC50 (HDAC2): 5.30 to 5.70
AUCinf ([1]; 10 mg/kg i.p. single): 818 ± 130 ng·h/mL
AUC0-24hr ([1]; 10 mg/kg i.p. single): 737 ± 104 ng/h/mL
Cmax ([1]; 10 mg/kg i.p. single): 1336 ± 95.6 ng/mL
T1/2 ([1]; 10 mg/kg i.p. single): 14.0 ± 2.60 h
Tmax ([1]; 10 mg/kg i.p. single): 15 ± 0 min
time for which dose is enough to inhibit in vivo HDAC6 activity ([1]; 30 mg/kg): more than 2 hr
AUCinf ([1]; 30 mg/kg i.p. single): 2129 ± 275 ng·h/mL
AUC0-24hr ([1]; 30 mg/kg i.p. single): 1997 ± 290 ng/h/mL
Cmax ([1]; 30 mg/kg i.p. single): 3749 ± 314 ng/mL
T1/2 ([1]; 30 mg/kg i.p. single): 9.64 ± 4.08 h
Tmax ([1]; 30 mg/kg i.p. single): 15 ± 0 min
time for which dose is enough to inhibit (90% of) in vivo HDAC6 activity ([1]; 50 mg/kg): more than 4 hr
AUCinf ([1]; 50 mg/kg i.p. single): 4321 ± 408 ng·h/mL
AUC0-24hr ([1]; 50 mg/kg i.p. single): 4028 ± 419 ng/h/mL
Cmax ([1]; 50 mg/kg i.p. single): 7276 ± 585 ng/mL
T1/2 ([1]; 50 mg/kg i.p. single): 10.0 ± 1.33 h
Tmax ([1]; 50 mg/kg i.p. single): 15 ± 0 min
exposure (Cmax and AUC) versus dose ([1]; 10, 30, 50 mg/kg i.p.): increased in a dose-dependent manner
plasma half-life (T1/2) ([1]; single IP, overall statement): about 10 hrs
serum levels of IgM vs vehicle (NZB/W F1 female mice): significantly lower
